Results: article PMC8576102, “Structure–Activity Relationship of Novel Second-Generation Synthetic Cathinones: Mechanism of Action, Locomotion, Reward, and Immediate-Early Genes” (Frontiers in Pharmacology, 2021)

What was measured:
SERT = tested on: T1, SERT; assay: Batch release assay, [3H]5-HT release from SERT-expressing HEK293 cells; format: cell-based, human; conditions: for [3H]5-HT release at the SERT (in words): compound close to its IC50, KHB vs KHB + monensin 10 µM
T1 construct: YFP (yellow-fluorescent protein); expressed in transfected cells
Procedure: (§1) Human embryonic kidney (HEK293) cells stably expressing the yellow-fluorescent protein (YFP)-tagged version of the human isoforms of SERT (abbreviated as SERT) and DAT (abbreviated as DAT) were used for the uptake inhibition and release assays. The generation and maintenance of stable, monoclonal cell lines expressing these transporters was conducted as described by ([Mayer F. P. et al., 2016]; [Mayer et al., 2016 FP.]). HEK293 cells were maintained in DMEM supplemented with heat-inactivated 10% FBS, 100 µg/100 ml streptomycin, 100 U/ml penicillin, and Geneticin (G418; 50 μg/ml) and cultured in a humidified atmosphere (5% CO2, 37°C). The cells were seeded at a density of 0.36 million cells/well onto 96-well plates previously coated (24 h) with poly-D-lysine (PDL).
HEK293 cells expressing the transporter of interest were preloaded with the tritiated substrate 0.08 μM [^3H]5-HT (SERT) or 0.1 μM [^3H]MPP^+ (DAT) in KHB (50 μL/well) for 20 min (5% CO2, 37°C). Subsequently, the cells were washed three times using KHB (200 μL/well) at room temperature. Afterward, a pre-incubation step of 10 min in KHB or in KHB + monensin (Mon) 10 μM was done. […] To determine the specificity of drug-induced reverse transport, selective transporter inhibitors 0.05 μM paroxetine (SERT) and 0.5 μM of GBR12909 (DAT) and effective releasers 10 μM p-chloroamphetamine (PCA; SERT) and 10 μM d-amphetamine (DAT) were used (Supplementary Figure S1). The resulting supernatant was collected and transferred to a new well every 2 min (four times for KHB/Mon and five times for each tested compound). Three independent experiments were performed in duplicate. Liquid scintillation cocktail was added to the wells with remaining cells (200 μL) and with the transferred supernatant (100 μL) and to the wells used for total uptake and activity measurements (200 μL). Total radioactivity present in the supernatant and in the remaining cells was set as 100%, and the amount of [^3H] substrate present in the supernatant was expressed as percentage of the total.
(§2) Data were expressed as mean ± SEM. Competition curves were plotted and fitted by non-linear regression, and data were best fitted to a sigmoidal dose-response curve to obtain an IC50 value. 1/DAT IC50: 1/SERT IC50 was used to calculate transporter ratios. Data from batch release assays were statistically analyzed with a mixed-effects model, employing Šidák’s correction for multiple comparisons. One-way/two-way ANOVA or two-way ANOVA of repeated measures, followed by Tukey’s or Dunnett’s post hoc test, was also used when appropriate. The α error probability was set at 0.05 (p < 0.05). The size group for each experiment and statistical results are shown in the corresponding legend of figures. Statistical calculations were performed using GraphPad Prism (GraphPad Software, San Diego, CA, United States).

Swiss CD-1 mice [1] = assay: Horizontal locomotor activity (HLA); format: in vivo; conditions: for HLA after 30 mg/kg compared to the medium dose (10 mg/kg): 30 mg/kg vs 10 mg/kg i.p.; for HLA vs saline at the lowest dose: 3 mg/kg i.p., 60 min; for Persistence of the increase in locomotor activity: 10 mg/kg i.p.
hSERT = target: T2, hSERT (Homo sapiens, UniProt P31645); assay: Uptake inhibition assay, [3H]5-HT uptake in transfected HEK293 cells; format: cell-based
T2 construct: YFP (yellow-fluorescent protein); expressed in transfected cells
T2 sequence (P31645 whole entry): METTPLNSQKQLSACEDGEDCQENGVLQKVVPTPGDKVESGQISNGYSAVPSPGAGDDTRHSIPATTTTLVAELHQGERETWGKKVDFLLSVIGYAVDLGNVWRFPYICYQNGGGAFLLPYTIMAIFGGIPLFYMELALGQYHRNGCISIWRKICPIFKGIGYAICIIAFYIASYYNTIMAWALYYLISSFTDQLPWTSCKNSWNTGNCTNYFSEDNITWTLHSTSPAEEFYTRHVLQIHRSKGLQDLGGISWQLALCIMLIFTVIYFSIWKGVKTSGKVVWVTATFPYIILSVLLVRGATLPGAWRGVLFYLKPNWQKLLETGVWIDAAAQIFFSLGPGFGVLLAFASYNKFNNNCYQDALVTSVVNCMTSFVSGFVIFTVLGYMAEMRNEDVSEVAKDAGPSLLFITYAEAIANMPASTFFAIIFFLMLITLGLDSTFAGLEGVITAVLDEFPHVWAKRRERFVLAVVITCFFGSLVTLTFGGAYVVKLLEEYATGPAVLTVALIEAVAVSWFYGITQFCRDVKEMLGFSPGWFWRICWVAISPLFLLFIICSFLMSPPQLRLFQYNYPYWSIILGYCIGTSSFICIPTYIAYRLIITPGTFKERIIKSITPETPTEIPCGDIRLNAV
Procedure: as §1
(§3) The medium was removed and immediately replaced with 200 µL/well of Krebs-HEPES buffer (KHB; 10 mM HEPES, 120 mM NaCl, 3 mM KCl, 2 mM CaCl2·2H2O, 2 mM MgCl2·6H2O, 20 mM D-glucose; pH 7.3). The cells were pre-incubated with different concentrations of the drug in KHB at a final volume of 50 µL/well for 5 min (DAT, SERT). Immediately after, the pre-incubation solution was removed and the cells were incubated with the tritiated substrates, 0.02 µM [^3H]MPP^+ for the DAT (3 min) and 0.1 µM [^3H]5-HT for the SERT (1 min), along with different concentrations of the drug in KHB. Finally, the [^3H]substrate was removed and the cells were washed with ice-cold KHB followed by the addition of sodium dodecyl sulfate (SDS) 1%. The lysate was then added to the scintillation fluid, and the radioactivity was quantified with a beta-scintillation counter (Perkin Elmer, Waltham, MA, United States).
(§4) The uptake in the absence of the drug compound was normalized to 100%, being the percentage of the uptake in the presence of different concentrations of the drug expressed as a percentage thereof. 3–4 independent experiments were performed in duplicate.
as §2

hDAT = target: T3, hDAT (Homo sapiens, UniProt Q01959); assay: Uptake inhibition assay, [3H]MPP+ uptake in transfected HEK293 cells; format: cell-based; conditions: for hDAT/hSERT ratio: 1/DAT IC50: 1/SERT IC50
T3 construct: YFP (yellow-fluorescent protein); expressed in transfected cells
T3 sequence (Q01959 whole entry): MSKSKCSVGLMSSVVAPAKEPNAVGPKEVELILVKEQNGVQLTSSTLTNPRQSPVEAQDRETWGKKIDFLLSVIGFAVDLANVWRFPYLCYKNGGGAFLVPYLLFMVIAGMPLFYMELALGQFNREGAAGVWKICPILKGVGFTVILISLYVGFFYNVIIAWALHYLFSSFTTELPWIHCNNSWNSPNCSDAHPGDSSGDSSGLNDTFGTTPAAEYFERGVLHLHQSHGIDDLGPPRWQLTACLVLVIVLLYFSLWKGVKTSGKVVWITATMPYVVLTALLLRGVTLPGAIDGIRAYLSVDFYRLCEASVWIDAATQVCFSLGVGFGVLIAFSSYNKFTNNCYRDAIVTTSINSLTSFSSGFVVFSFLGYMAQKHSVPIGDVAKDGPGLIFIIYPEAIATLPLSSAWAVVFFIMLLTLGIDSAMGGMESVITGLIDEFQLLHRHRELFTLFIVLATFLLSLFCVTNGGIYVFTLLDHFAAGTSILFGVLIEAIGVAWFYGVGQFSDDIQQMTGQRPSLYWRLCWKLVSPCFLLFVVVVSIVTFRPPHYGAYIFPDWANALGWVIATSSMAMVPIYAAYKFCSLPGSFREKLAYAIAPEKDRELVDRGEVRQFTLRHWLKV
Procedure: as §1, §3, §4, §2

c-fos mRNA = c-fos mRNA expression (qPCR) in ventral and dorsal striatum; format: in vivo, mice; conditions: 10 mg/kg i.p., vs saline; for c-fos expression in the VS, 120 min: 120 min after administration; for c-fos expression in the DS, 120 min: 120 min post injection
Procedure: (§5) Mice were injected with an acute dose of 10 mg/kg i.p. of the corresponding synthetic cathinone or saline solution. The dose was chosen according to the behavioral results obtained since it caused significant response in both CPP and HLA tests in all compounds tested. 30 min or 2 h post-administration, mice were sacrificed by cervical dislocation and the VS, DS, and mPFC were dissected out ([Paxinos and Franklin, 2004]) using a mouse brain acrylic matrix (Agnthos, Sweden) and stored at -80°C until use. Total RNA was isolated following a standard TRIsure reagent–chloroform extraction protocol ([Duart-Castells et al., 2019]).
(§6) Reverse transcription polymerase chain reaction (RT-PCR) was carried out to obtain complementary DNA (cDNA) by using the High Capacity cDNA Reverse Transcription Kit (Applied Biosystems) and the Veriti thermal cycler (Applied Biosystems, Foster, CA, United States). Synthesis of cDNA was obtained by mixing 1,000 ng of total RNA with the corresponding volumes of each kit reagent to a final volume of 20 μL. Quantitative real-time polymerase chain reaction (qPCR) was performed by using the StepOnePlus^TM Real-Time PCR System and TaqMan PCR Master Mix (Applied Biosystems, Foster, CA, United States). 25 ng of cDNA was loaded in a final volume of 20 μL containing sequence-specific primers and TaqMan probes (Mm01204954_g1 for Arc, Mm04230607_s1 for bdnf, Mm00487425_m1 for c-fos, and Mm00607939_s1 for β-actin). Each sample was tested in duplicate. qPCR conditions were 2 min at 50°C, 10 min at 95°C, 40 cycles/15 s at 95°C, and 60 s at 60°C. Changes in gene expression were defined by using the comparative Ct method for each experimental sample. Gene expression was normalized by using the mean of Ct values of the housekeeping gene β-actin.

Arc mRNA [2] = assay: Arc mRNA expression (qPCR) in ventral and dorsal striatum; format: in vivo, mice; conditions: 10 mg/kg i.p., 120 min after administration, vs saline
Procedure: as §5, §6

Arc mRNA [3] = tested on: Arc mRNA; design: method as in Giannotti et al., 2017; conditions: 30 min and 2 h after administration; ref Giannotti et al., 2017; cited from earlier work
bdnf mRNA = bdnf mRNA expression (qPCR) in medial prefrontal cortex; format: in vivo, mice; conditions: 10 mg/kg i.p., 120 min after administration, vs saline
Procedure: as §5
Reverse transcription polymerase chain reaction (RT-PCR) was carried out to obtain complementary DNA (cDNA) by using the High Capacity cDNA Reverse Transcription Kit (Applied Biosystems) and the Veriti thermal cycler (Applied Biosystems, Foster, CA, United States). Synthesis of cDNA was obtained by mixing 1,000 ng of total RNA with the corresponding volumes of each kit reagent to a final volume of 20 μL. Quantitative real-time polymerase chain reaction (qPCR) was performed by using the StepOnePlus^TM Real-Time PCR System and TaqMan PCR Master Mix (Applied Biosystems, Foster, CA, United States). […]

Swiss CD-1 mice [4] = assay: Conditioned place preference (CPP); format: in vivo; conditions: 30 mg/kg i.p.
Procedure: For the behavioral and gene expression experiments, male Swiss CD-1 mice (Janvier, Le Genest, France) weighing 30–35 g (6–8 weeks old) were used. With the aim of reducing the number of animals and minimize their suffering, animal procedures were performed in accordance with the ARRIVE guidelines. All animal care and experimental protocols in this study were in accordance with the guidelines of the European Community Council (2010/63/EU), as amended by Regulation (EU) 2019/1010, and approved by the Animal Ethics Committee of the University of Barcelona under the supervision of the Autonomous Government of Catalonia. The animals were housed in temperature-controlled conditions (22 ± 1°C) under a 12 h light/dark cycle and had free access to food and drinking water. During the study, the animals were supervised immediately after injection and during the behavioral procedure as well as 24 h after injection, and different parameters were visually evaluated for humane endpoints, such as self-mutilations, strange vocalizations, abnormal posture, or a greater weight loss than 20%. The sample size was determined using GPower software. […]
The rewarding effects were determined using a place conditioning paradigm as described by [Duart-Castells et al. (2019]). […] The time spent in each compartment was recorded (Smart 3.0, Panlab, Spain). […]

| Structure (SMILES) | [3H]5-HT release at the SERT (in words) (SERT) | HLA after 30 mg/kg compared to the medium dose (10 mg/kg) (Swiss CD-1 mice [1]) | IC50 (hSERT) | IC50 (hDAT) | hDAT/hSERT ratio (hDAT) | c-fos expression in the VS, 120 min (c-fos mRNA) | c-fos expression in the DS, 120 min (c-fos mRNA) | Distance traveled (Swiss CD-1 mice [1]; 10 mg/kg, independent experiment, N = 15) | Arc gene expression in the DS, 120 min (Arc mRNA [2]) | Arc gene expression in the VS, 120 min (Arc mRNA [2]) | c-fos expression in the DS, 30 min (c-fos mRNA; 30 min after injection) | Arc mRNA levels in the striatum after acute injection (Arc mRNA [3]) | HLA vs saline at the lowest dose (Swiss CD-1 mice [1]) | Persistence of the increase in locomotor activity (Swiss CD-1 mice [1]) | bdnf mRNA levels in the mPFC, 120 min (bdnf mRNA) | CPP rewarding effects vs saline at the highest dose (Swiss CD-1 mice [4]) | [3H]5-HT release at SERT-expressing HEK293 cells, max. (SERT; compound close to its IC50 (NEP 6 µM)) | c-fos expression in the VS, 30 min (c-fos mRNA; 30 min after injection) |
| --- | --- | --- | --- | --- | --- | --- | --- | --- | --- | --- | --- | --- | --- | --- | --- | --- | --- | --- |
| CCCC(NC)C(=O)c1ccccc1 (stereo not drawn) [Pentedrone, α-methylaminovalerophenone] | milder release | ceiling effect | 138 ± 13.4 µM | 0.21 ± 0.02 µM | 666 | significant increase | increased | – | – | – | – | – | – | – | – | – | – | – |
| COC(=O)[C@H]1[C@@H](OC(=O)c2ccccc2)C[C@@H]2CC[C@H]1N2C [Cocaine, reference compound] | – | – | – | – | – | – | – | 16,018 ± 1,118 cm | – | – | – | – | – | – | – | – | – | – |
| CCCC(NCC)C(=O)c1ccc(C)cc1 (stereo not drawn) [4-MeAP, 4’-methyl-α-ethylaminovalerophenone] | most potent | significant increase | 13.3 ± 0.89 µM | 0.14 ± 0.02 µM | 93 | – | increased | – | significant increase | significant increase | significant overexpression | – | – | – | – | – | – | – |
| CCCC(C(=O)c1ccccc1)N1CCCC1 (stereo not drawn) [α-PVP] | – | – | – | – | – | – | – | – | – | – | – | did not alter | – | – | – | – | – | – |
| CCCC(NC)C(=O)c1ccc(C)cc1 (stereo not drawn) [4-MPD, 4’-methyl-α-methylaminovalerophenone] | most potent | significant increase | 30.9 ± 6.23 µM | 0.29 ± 0.05 µM | 108 | – | – | – | – | – | – | – | – | – | – | – | – | – |
| CCCC(NCC)C(=O)c1ccccc1 (stereo not drawn) [N-Ethyl-pentedrone, α-ethylaminovalerophenone] | most potent | ceiling effect | 127 ± 5.14 µM | 0.1 ± 0.03 µM | >1,000 | significant increase | increased | – | significant increase | significant increase | significant overexpression | – | increase | more than 1 hour | – | – | – | – |
| CCCC(NC)C(=O)c1ccc2c(c1)OCO2 (stereo not drawn) [Pentylone, 3’,4’-methylendioxy-α-methylaminovalerophenone] | milder release | significant increase | 23.2 ± 2.68 µM | 0.51 ± 0.07 µM | 45 | – | increased | – | significant increase | significant increase | – | – | – | – | – | – | – | – |
| CCCC(NCC)C(=O)c1ccc2c(c1)OCO2 (stereo not drawn) [N-Ethyl-pentylone, 3’,4’-methylendioxy-α-ethylaminovalerophenone] | smallest | significant decrease | 6.37 ± 0.09 µM | 0.13 ± 0.01 µM | 51 | – | – | – | significant increase | significant increase | increased | – | increase | more than 1 hour | significant overexpression | significant increase | ≈ 5 % total cpm | significant overexpression |
| CCCC(C(=O)c1ccc2c(c1)OCO2)N1CCCC1 (stereo not shown) [MDPV, 3,4-methylenedioxypyrovalerone] | – | – | – | – | – | – | – | – | – | – | – | increased | – | – | – | – | – | – |
